Data on 2 compounds can be found in patent US6255347A (priority 1997, dated 2001).

Data set [1] has as its system PKCα. Briefly: PKCα translocation in NIH 3T3 cells (subcellular fractionation, Western blot). The following applies: for PKCα localization: PMA 0.02 μg/ml, 2% FBS. The class given is cell-based. As to the method: (§1) NIH 3T3 cells (American Type Culture Collection, Rockville, Md.) were cultured in DMEM supplemented with 10% FBS inoculated at 10^4 cells/35 […] dish. […] PMA and ibuprofen were dissolved in DMSO and stored in 5% DMSO stock solutions that were diluted a 1000-fold with culture media prior to use. […] The media containing freshly added PMA and ibuprofen were changed every 60 hours for both the foci formation assay and PKCα analysis by Western blot.
(§2) The cells were washed twice with phosphate-buffered saline (PBS) at 37° C. and subsequently lysed and scraped in 1 ml ice-cold protein lysis buffer (20 mM Tris-HCl, pH7.4, 2 mM EGTA, 2 mM EDTA, […] leupeptin and […] aprotinin) at 4° C. […] Briefly, cells were homogenized 10× in 15 ml glass homogenizer with a tight-fitting pestle and centrifuged at 900×g for 10 min. The resulting supernatant was then centrifuged at 100,000×g for 60 min to produce a nucleus-free membrane fraction (pellet) and a cytosol fraction (supernatant) for Western blots. The 900×g nuclear pellet was suspended in the 2 ml lysis buffer containing 10% sucrose and 0.1% Triton X-100 and washed twice by centrifuging at 1000×g for 10 min, then resuspended in 1 ml of the same buffer without Triton X-100 for Western blots. The purity of the fractions was monitored by light microscopy. […] The samples were stored at -70° C. until analysis.
(§3) 15 μl of human plasma, 15 μl of rat plasma, CSF or 50 μg of rat brain protein were denatured with 35 μl of sample buffer at 95° C. for 4 min. Denatured proteins were separated by 10% SDS-polyacrylamide gel electrophoresis with a 50 μg or 20 μg protein load for each sample for APPs or PKC, respectively, and electrophoretically transferred from gel to nitrocellulose membrane. […] The immunoreactive bands were developed using enhanced chemilumenescence (ECL. Amersham Life Sci., Little Chalfont, UK), following extensive washing with the blocking buffer. The PKC bands were verified in each case by competitively blocking the signal with the peptide corresponding to each of PKCs. The bands were quantitated by scanning densitometry. Quantitative comparisons were made between samples processed simultaneously on one blot.
In general terms: A western blot detects proteins with antibodies after separation by electrophoresis.

The test system of data set [2] is c-jun expression in NIH 3T3 cells. The following applies: cited from earlier work.
For data set [3], the system named is NIH 3T3 cells. Briefly: Foci formation assay, inhibition of PMA induced neoplastic transformation of NIH 3T3 cells. The format is cell-based. As to the method:
as §1
Subsequent to washing with a tris/ saline buffer, the cells were stained with a solution of 4% aqueous Giemsa stain in phosphate buffer (pH 7.0). Foci of transformed cells were then visible by eye due to their high local density and verified by under light microscopy.

Data set [4] deals with neutrophil. The following applies: by chemotactic agents; cited from earlier work.
The subject of data set [5] is A-427. The following applies: cited from earlier work.
Data set [6] relates to APPs secretion by NIH 3T3 cell lines. The following applies: 50 μM, 20 h.
In data set [7] the test system is MCF 7/s. The following applies: cited from earlier work.
Data set [8] relates to rat colon cancer. The following applies: carcinogen induced; cited from earlier work.
The nature of data set [9]: Estimated unbound fraction of ibuprofen in culture media. The class given is in vitro ADME.
Data set [10] has as its system APPs. The following applies: 10 mg/kg P.O. bid, 7 days. On the procedure: as §2, §3
(§4) Male Sprague-Dawley rats (12 month) were obtained from Harlan-Sprague-Dawley, Inc. (Indianapolis, Ind.) and housed under controlled conditions of temperature humidity and light/dark cycle. […] Rat stomach and duodenum were collected for the quantitation of gastroduodenal lesions. […]

Data set [11] relates to APP. Particulars: 10 mg/kg P.O. bid, 7 days. As to the method:
as §2, §3, §4

Data set [12] relates to Ht-29. Particulars: cited from earlier work.
For data set [13] the following is noted: cited from earlier work.
Data set [14] concerns UACC 375. Particulars: cited from earlier work.
For data set [15], the system named is lung and gastric cancer. Particulars: carcinogen induced; cited from earlier work.
Data set [16] has as its system mouse mammary glands cancer. The following applies: carcinogen induced; cited from earlier work.

Structures are written as SMILES.

`CCCCCCCCCCCCCC(=O)O[C@@H]1[C@@H](C)[C@@]2(O)[C@@H](C=C(CO)C[C@]3(O)C(=O)C(C)=C[C@@H]23)[C@@H]2C(C)(C)[C@]12OC(C)=O` [PMA, phorbol 12-myristate 13-acetate]: the PKCα localization result in [1] (2 weeks) is “translocation from cytosol to membrane fractions, but interestingly translocation to the nuclear compartment was absent”; in data set [1] (30 min), “translocation of PKCα to the membrane fraction and some indication of PKCα appearing in the nuclear fraction”; in data set [1] (4 hours), “clear association of PKCα with the nuclear fraction”; in [1] (18 hours) it was “remained at 18 hours despite its disappearance from the membrane and cytosolic fractions”; in data set [1] (48 hours), “cytosolic PKCα had been regenerated but membrane and nuclear sites were not”. In addition, in data set [1] (reduced media FBS plus PMA 0.02 μg/ml, 4 to 18 hours), the PKCα translocation entry was “significant translocation of PKCα to both nuclear and microsomal membranes”. Further, in data set [2], the c-jun expression result was “transiently induces c-jun expression”. In addition, the “dish area occupied by foci” value in data set [3] (PMA 0.02 μg/ml, 2% FBS, 6 weeks) is given as “over 50%”.
For orientation: fraction unbound means free concentration divided by total concentration. For the compound `CC(C)Cc1ccc(C(C)C(=O)O)cc1` (stereo not drawn) [ibuprofen, α-4-(2-methylpropyl) benzeneacetic acid], in [4], the “blocking of neutrophil activation” value was “blocks neutrophil activation by chemotactic agents but this effect is not enantioselective”. Further, the inhibition of proliferation entry in data set [5], in data set [7], in [12] and in [14] was “inhibits the proliferation” each time. The “APPs secretion (in words)” value in [6] was “increased APPs secretion”. Further, the anticancer activity result in data set [8], in data set [15] and in [16] was “demonstrated anticancer activity” in each case. Moreover, in data set [9], the free fraction (fraction unbound) was roughly 0.05. The “content of cytosolic APPs of rat brain (in words)” value in data set [10] is “increased the content of cytosolic APPs”. The “content of membrane APP of rat brain (in words)” value in data set [11] was “decreased content of membrane APP of rat brain, but not significantly”. Besides, the “protein binding (in words)” value in data set [13] is “highly protein bound”. Also, the oral absorption result in [13] (suspensions, drops, caplets, chewable tablets) is listed as “well absorbed orally”. Also, the “effect on NIH 3T3 cell growth patterns without PMA” value in [3] (DMSO vehicle, no PMA) is “no effect”.
